Earlier results on 2 molecules are cited in US7598279B2, “Neurotherapeutic azole compounds” (SK Holdings Co., Ltd., priority 2005, dated 2009).

For one data set, the system named is mice and rats. To be noted: cited from earlier work.
In another data set the test system is clonic seizures. To be noted: in vivo; cited from earlier work.
In another data set the test system is mice. To be noted: probably by inhibition of cytochrome P-450; cited from earlier work.

For the molecule `OC(Cn1ccnc1)c1ccc(CCc2ccccc2)cc1` (stereo not drawn) [denzimol, α-(4-(2-phenylethyl)phenyl)-1H-imidazole-1-ethanol], in the data set on mice and rats, the “protection against maximal electroshock- or pentylenetetrazole-induced tonic seizures” value was “protect”. For the same molecule, in the data set on clonic seizures, the “antagonism of clonic seizures induced by pentylenetetrazole, strychnine, bicuculline, or picrotoxin” value is “do not antagonize”. In the data set with mice, the hexobarbital-induced sleeping time entry is reported as “potentiated”.

`O=C(Cn1ccnc1)c1ccc2ccccc2c1` [Nafimidone, 2-(1H-imidazole-1-yl)-1-(2-naphthalenyl)ethanone]: the “protection against maximal electroshock- or pentylenetetrazole-induced tonic seizures” value with mice and rats was “protect”. For the same molecule, in the data set on clonic seizures, the “antagonism of clonic seizures induced by pentylenetetrazole, strychnine, bicuculline, or picrotoxin” value is listed as “do not antagonize”. Besides, the hexobarbital-induced sleeping time entry in the data set on mice is “potentiated”.
